Test results published in patent US9375457B2, “Composition comprising Rhizoma coptidis, Cortex phellodendri and Fructus gardeniae and for treating neurodegenerative diseases” (Hong Kong Baptist University, priority 2013, dated 2016).

Columns and labels:
[1] = system: N2a-SwedAPP cells; assay: MTT viability assay in N2a-SwedAPP cells; format: cell-based, murine; conditions: mouse, 48 h
Experimental: N2a-SwedAPP cells were obtained from Dr. Gopal Thinakaran (University of Chicago, Chicago, Ill., USA). N2a-SwedAPP cells were cultured in Dulbecco's modified Eagle's medium (DMEM) and OPTI-MEM medium in a 1:1 ratio with 5% FBS, 50 μg/mL penicillin, 50 μg/mL streptomycin and 200 μg/mL G418 as previously described in Thinakaran G, Teplow D B, Siman R, Greenberg B, Sisodia S S (1996) Metabolism of the “Swedish” amyloid precursor protein variant in neuro2a (N2a) cells. J Biol Chem 271: 9390-9397. N2a-SwedAPP cells were incubated at 37° C. in a 5% CO2/95% humidity incubator. Cells were seeded 24 hours prior to the treatments. When growth reached close to 90% of confluence, cells were transferred into DMEM with 1% FBS for loading extracts. The final concentration of DMSO in all experiments was 0.1%, and this concentration caused no cytotoxicity.
For the viability assay, N2a-SwedAPP cells were seeded in a 96-well plate (7000 cells/well and 5000 cells/well). […] Finally, optical intensity was measured using a BioRad plate reader at 570 nm and a reference of 620 nm. […]
N2a-SwedishAPP cells are widely used as a cellular model of Alzheimer's disease, because they express a high level of APP and Aβ. The effects of HLJDT and its components on viability of N2SwedAPP cells are monitored by using the MTT assay. […]

[2] = Baicalein concentration in brain of TgCRND8 mice; format: in vivo

**Q.** Which “non-toxic concentration (highest concentration that shows greater than 90% cell viability)” value [1] does the source give for `O=c1cc(-c2ccccc2)oc2cc(O)c(O)c(O)c12` [baicalein] here?
**A.** 12.5 µM

**Q.** What about the “mean concentration of baicalein in the brain” value ([2]; TgCRND8 mice, orally administered 25 mg/kg) of the same compound?
**A.** 120 ± 10 ng/mL

**Q.** And the “difference in baicalein levels in the brain between doses” value ([2]; mouse, in vivo)?
**A.** no difference
